Here are results for 1 compound from article PMC12486458 (Journal of Enzyme Inhibition and Medicinal Chemistry, 2025).

For orientation: IC50 means the midpoint of a concentration-inhibition curve.

Structures are written as SMILES.

The assay deals with U266 multiple myeloma cells. The assay can be described thus: MTT assay. The class given is cell-based. Particulars: Homo sapiens, U-266, 72 h, read-out: U266 IC50.

Take `CC[C@@H]1C(=O)N(C)c2cnc(Nc3ccc(C(=O)NC4CCN(C)CC4)cc3OC)nc2N1C1CCCC1` [BI 2536]: the IC50 was 280 ± 30 nM.
